One assay relates to Proteus mirabilis. Nature of the assay: Antimicrobial activity against Proteus mirabilis infected in mouse assessed as growth inhibition at 250 mg/kg. In kind it is functional, organism-based. Also on record: dose 250 mg/kg.
The next assay concerns Pseudomonas aeruginosa. As to the kind of experiment: Antimicrobial activity against Pseudomonas aeruginosa infected in mouse assessed as growth inhibition at 250 mg/kg. More on the design: dose 250 mg/kg. The assay is classed as functional, organism-based.
In assay [1] the test system is Salmonella. As to the kind of experiment: Antibacterial activity against Salmonella schottmuelleri assessed as growth inhibition incubated for 24 hrs using mixed anhydride. The assay is classed as functional.
Assay [2] has as its system Staphylococcus aureus. As to the kind of experiment: Antibacterial activity against Staphylococcus aureus assessed as growth inhibition incubated for 24 hrs using mixed anhydride. The assay is classed as functional.
Assay [3] has as its system Salmonella. Nature of the assay: Antibacterial activity against Salmonella schottmuelleri assessed as growth inhibition incubated for 24 hrs using acid chloride. In kind it is functional.
Assay [4] relates to Staphylococcus aureus. Nature of the assay: Antibacterial activity against Staphylococcus aureus assessed as growth inhibition incubated for 24 hrs using acid chloride. In kind it is functional.
For assay [5], the system named is Staphylococcus aureus. Nature of the assay: Antibacterial activity against Staphylococcus aureus assessed as zone of inhibition at 100 ug/ml incubated for 24 hrs. The assay is classed as functional, organism-based.

In brackets after ≈: the same amount, converted by molar mass. Activity calls are given as the source filed them. Some results are limits rather than exact numbers.

This is an account of results in ChEMBL document CHEMBL3272199, “Beta-lactam antibiotics with N-oxide side chains. 1. Quinoxaline N-oxides” (1976).

On to `Cc1c(C)[n+]([O-])c2cc(C(=O)N[C@@H]3C(=O)N4[C@@H]3SC(C)(C)[C@@H]4C(=O)[O-])ccc2[n+]1[O-].[Na+]`, for which the result in the assay on Proteus mirabilis and with Pseudomonas aeruginosa was inactive. Further, the results for the MIC with Salmonella [1] and with Staphylococcus aureus [2] were above 1000 µg/mL and 100 µg/mL, respectively.

On to `CC1(C)S[C@@H]2[C@H](NC(=O)c3c(-c4ccccc4)[n+]([O-])c4ccccc4[n+]3[O-])C(=O)N2[C@H]1C(=O)[O-].[Na+]`, for which the results for the minimal inhibitory concentration (MIC) in the assay with Salmonella [3] and in the assay on Staphylococcus aureus [4] were 1000 µg/mL and 100 µg/mL, respectively. Besides, the result in the assay on Proteus mirabilis and in the assay on Pseudomonas aeruginosa was inactive. Besides, the “inhibition zone (IZ)” value in the assay with Staphylococcus aureus [5] is “Active”.

With `CC1(C)S[C@@H]2[C@H](NC(=O)CCCc3c(-c4ccccc4)[n+]([O-])c4ccccc4[n+]3[O-])C(=O)N2[C@H]1C(=O)[O-].[Na+]`, the result in the assay on Proteus mirabilis and in the assay with Pseudomonas aeruginosa was inactive. The figures for the MIC with Salmonella [1] and in the assay with Staphylococcus aureus [2] were above 1000 µg/mL and 10 µg/mL, respectively.

With `CCOC(=O)c1c(CCC(=O)N[C@@H]2C(=O)N3[C@@H]2SC(C)(C)[C@@H]3C(=O)[O-])[n+]([O-])c2ccccc2[n+]1[O-].[Na+]`, the outcome in the assay with Proteus mirabilis and in the assay on Pseudomonas aeruginosa was inactive. Besides, the minimum inhibitory concentration (MIC) (as a rule, the smallest concentration in the dilution series that meets the test's criterion for growth inhibition) in the assay with Salmonella [1] turned out to be 1000 µg/mL; with Staphylococcus aureus [2] it was 10 µg/mL.

Turning to `CCOC(=O)c1c(C(=O)N[C@@H]2C(=O)N3[C@@H]2SC(C)(C)[C@@H]3C(=O)[O-])nc2ccccc2[n+]1[O-].[Na+]`, the values for the MIC with Salmonella [3] and in the assay with Staphylococcus aureus [4] were 1000 µg/mL and 100 µg/mL, respectively. The outcome in the assay with Proteus mirabilis and with Pseudomonas aeruginosa was inactive. Also, the “inhibition zone (IZ)” value in the assay on Staphylococcus aureus [5] is “Active”.

`CC1(C)S[C@@H]2[C@H](NC(=O)Cc3ccccc3)C(=O)N2[C@H]1C(=O)O` [PENICILLIN G]: the MIC with Salmonella [3], in the assay on Staphylococcus aureus [4], in the assay on Salmonella [1] and in the assay on Staphylococcus aureus [2] was 10 µg/mL (≈ 29.9 µM) in each case.

For the compound `Cc1c(CC(=O)N[C@@H]2C(=O)N3C(C(=O)O)=C(C[O-])CS[C@H]23)[n+]([O-])c2ccccc2[n+]1[O-].[Na+]`, the outcome in the assay on Proteus mirabilis and with Pseudomonas aeruginosa was inactive. For the same compound, the minimal inhibitory concentration (MIC) was above 1000 µg/mL with Salmonella [1] and 1000 µg/mL in the assay on Staphylococcus aureus [2]. Moreover, the “inhibition zone (IZ)” value with Staphylococcus aureus [5] is “Active”.

For `Cc1c(C(=O)N[C@@H]2C(=O)N3[C@@H]2SC(C)(C)[C@@H]3C(=O)[O-])[n+]([O-])c2ccccc2[n+]1[O-].[Na+]`, the results for the MIC in the assay on Salmonella [3] and with Staphylococcus aureus [4] were 1000 µg/mL and 100 µg/mL, respectively. Further, the result in the assay with Proteus mirabilis and in the assay on Pseudomonas aeruginosa was inactive.

For `Cc1c(CC(=O)N[C@@H]2C(=O)N3[C@@H]2SC(C)(C)[C@@H]3C(=O)[O-])[n+]([O-])c2ccccc2[n+]1[O-].[Na+]`, the outcome in the assay on Proteus mirabilis and in the assay on Pseudomonas aeruginosa was inactive. Moreover, the MIC in the assay on Salmonella [1] was found to be 1000 µg/mL; in the assay on Staphylococcus aureus [2], 100 µg/mL.
